Measurements from patent EP3892734B1, “SCREENING METHODS AND THERAPEUTIC APPLICATIONS BASED ON BACTERIAL MOTILITY INHIBITION” (Ludwig-Maximilians-Universität München, priority 2020, dated 2021).
“Also recorded” adds a separate entry of the source.

What was measured:
[1] = solubility observed when preparing doses for MTD testing; type: physicochemical; conditions: dosing preparations for MTD testing
Procedure: (§1) The active compounds BL1 and BL2, which were chosen to be tested in a preclinical model, were initially tested for toxicity in the mouse model by […] (MTD) testing. The MTD testing (MTD Tox56000 protocol, Eurofins Panlabs) was performed according to international standards, as will be briefly outlined in the following: Three mice were dosed with the compounds at each intended dose. BL1 active compound was prepared in a suitable stock concentration in 5% DMSO, or 5% DMSO, 10% Solutol, 85% PBS (for the 40 and 60 mg/kg/day), and dosed at 10, 30, 40, or 60 mg/kg/day by intraperitoneal injection (125 µl for each dose). BL2 active compound was dosed orally, at 10 mg/kg/day, 30 mg/kg/day, or 60 mg/kg/day, diluted in 5% DMSO, 2.5% carboxy-methyl-cellulose (CMC), in PBS, also at 125 µl per dose per animal. The dosing in each case started with the lowest dose in the three animals, followed by observation for up to 72 h. Subsequently, the next higher dose was administered to a different set of three mice, etc.. Both compounds to be used subsequently for the in vivo therapeutic administration were verified to be non-toxic to mice below an administered dose of 40 mg/kg per day.

[2] = system: H. pylori N6; experiment: MIC/MBC determination in broth culture; type: cell-based, Helicobacter pylori; conditions: for classical antibacterial activity (growth / metabolic inhibition) against H. pylori: result in words
Procedure: In order to distinguish compounds having anti-flagellar activity from compounds having classical antibiotic effects (i.e., bacteriostatic and/or bactericidal effects), the test compounds were additionally subjected to MIC/MBC testing. Helicobacter pylori were grown in liquid culture by harvesting bacteria from overnight-grown plates into brain-heart infusion medium (BHI, Oxoid) with 3% yeast extract and 5% horse serum, added to an initial inoculum of OD600 = 0.05. 10 ml of this bacterial suspension were incubated as a preculture in a 50 ml Falcon tube with lid ajar inside of an air-tight incubation jar and a microaerobic atmosphere generated by Merck Anaerocult C gas generating packs at 37°C and shaking with 175 rpm overnight. On the following day, prior to the beginning of the experiment, the OD600 of the liquid culture was routinely below 1, in mid-exponential growth phase.
Next, 200 µl of the bacterial suspension were added per well of a 24-well-plate (Greiner Cellstar #662160) diluted to an initial OD600 of 0.07. Compounds (in DMSO) were added to the sample wells in duplicates in a serial dilution of starting at an upper limit of 256 µg/ml. Pure DMSO was added to all wells for a concentration of 2% DMSO per well. The multiwell plate (with lid) was incubated inside of an incubation jar and a microaerobic atmosphere generated by Merck Anaerocult C sachets at 37°C and shaking with 175 rpm for 24 h. For measurement, the duplicates were pooled after visual inspection, diluted 1:3 in medium and measured in plastic cuvettes as an OD at 600 nm. The detection limit of growth was defined as an OD600 of 0.05. […] This MIC determination method can also be downscaled, further automated and measured in 96- or 384-well plates in a micro-well plate incubator equipped with a gas chamber for microaerobic bacterial incubation.
For evaluation of the "minimum bactericidal concentration" (MBC), bacteria from the MIC experiment were streaked and plated at different serial dilutions on blood agar, including the lowest compound concentration where bacterial growth was still measurable by OD600 (OD600 ≥ 0.05), and three compound concentration levels above (if possible). The blood agar plates were incubated at 37°C in an […], either inside an incubation jar (Oxoid) with an Anaerocult C gas pack (Merck), or in an anaerobic cabinet aerated with a microaerobic gas mix as outlined above (Scholzen).
For evaluation of the MBC, bacteria from the MIC experiment were plated as streaks or in appropriate dilutions on Columbia blood agar plates, using inoculation loops. The plates were incubated at 37°C overnight to detect growth.

[3] = minimal toxic dose (MTD) testing in mice; type: in vivo; conditions: oral, up to 60 mg/kg/day, listed as BL2
Procedure: as §1

## Cn1c(CSC(=N)N)c(Cl)c(=O)n1-c1ccccc1 [Active 2]
[1]
  solubility: very well soluble
[2]; H. pylori
  MIC/MBC: > 256 µg/mL
[2]; Helicobacter pylori, N6
  MIC: > 256 µg/mL
[2]
  classical antibacterial activity (growth / metabolic inhibition) against H. pylori: did not inhibit growth or metabolic activity of H. pylori
[2]; listed as BL2
  classical antibacterial activity (growth / metabolic inhibition) against H. pylori: not active against H. pylori in a classical antibacterial (antibiotic) manner
[3]
  toxicity (MTD testing): did not show any toxicity; also recorded: not toxic
